# Reference: patent US11878063B2, “Engineered ligands and uses thereof” (Children's Medical Center Corporation, priority 2019, dated 2024)
# Experiments:
# Mice (CD1 female) = test: Calcemic response: blood ionized calcium in mice after subcutaneous injection; assay type: in vivo, mouse; conditions: 35 nmol/kg subcutaneous
# Experimental: Animal experiments and measurement of in vivo response. Mice (CD1 female, age 11 weeks) were treated in accordance with the ethical guidelines adopted by Massachusetts General Hospital. […] Peptides and conjugates were administered at doses that allowed for differentiation between compounds with differing levels of in vivo activity^27. Statistical analyses were performed assuming Gaussian distribution of data. Mice (n=4 per compound) were injected subcutaneously with vehicle (10 mM citric acid/150 mM NaCl/0.05% Tween-80, pH 5.0) or vehicle containing PTH or conjugate at a dose of 35 nmol/kg body weight. […] Blood was withdrawn just before injection (t=0) or at times thereafter. Tail vein blood was collected and immediately analyzed. Blood Ca^2+ concentration was measured with a Siemens RapidLab 348 Ca2+/pH analyzer.
# PTHR1YFPΔECD = test: cAMP induction in HEK293 cells stably expressing PTHR1YFPΔECD (YFP replaces extracellular domain); assay type: cell-based, human
# Experimental: (§1) Measurement of cAMP response. These assays were performed as previously described^27. Briefly, HEK-293-derived cell lines that stably express the Glosensor cAMP reporter (Promega Corp.)^30 and PTHR1, a PTHR1 variant, or PTHR2 were seeded into white sided 96 well plates (50,000 cells/well) and grown to confluency. Confluent monolayers of cells were pre-incubated with CO2 independent medium containing D-luciferin (0.5 mM) at 37° C. until a stable baseline level of luminescence was established (20 min). Varying concentrations of ligands were then added, and the time course of luminescence response was recorded using BioTek plate reader.
# (§2) Data calculations. Data were processed using Microsoft Excel and GraphPad Prism 6. Data from cAMP dose-response assays were analyzed using a sigmoidal dose-response model with variable slope. Data sets were statistically compared by using Student's t test (two-tailed) assuming unequal variances for the two sets.
# (§3) The portion of PTHR1 encoded by exon 2 is not resolved in structural studies (FIG. 12—Panel d)^13, 14, 17, is not important for ligand binding^18, and in past work has been targeted as a site for receptor modification^18, 19. A construct was generated that encodes a PTHR1 variant in which a 14-residue fragment from exon 2 was replaced with a 14-mer epitope tag from the intracellular protein UBC6e (PTHR16E, FIG. 12—Panel d)^20. A receptor construct in which a pH-sensitive green fluorescent protein variant (GFP) was inserted into the portion of the receptor encoded by exon 2 (PTHR1GFP in FIGS. 17A to 17C)^19. Another version of PTHR1 in which yellow fluorescent protein (YFP) replaces the entire extracellular domain (PTHR1YFPΔECD, FIG. 12—Panel e)^21, was also used.
# PTHR16E = target: T1, PTHR16E (Homo sapiens, UniProt Q03431, A83I/D81R/G76A/K80A/K82Q/P78E/R79L/S71Q/S73D/S75E/T74Q); test: cAMP induction in HEK293 cells stably expressing PTHR16E (6E/Ubc6e epitope tag in exon 2 segment); assay type: cell-based; conditions: maximal cAMP response, normalized
# T1 construct: expressed in transfected cells
# T1 sequence (Q03431 27-593 S71Q/S73D/T74Q/S75E/G76A/P78E/R79L/K80A/D81R/K82Q/A83I): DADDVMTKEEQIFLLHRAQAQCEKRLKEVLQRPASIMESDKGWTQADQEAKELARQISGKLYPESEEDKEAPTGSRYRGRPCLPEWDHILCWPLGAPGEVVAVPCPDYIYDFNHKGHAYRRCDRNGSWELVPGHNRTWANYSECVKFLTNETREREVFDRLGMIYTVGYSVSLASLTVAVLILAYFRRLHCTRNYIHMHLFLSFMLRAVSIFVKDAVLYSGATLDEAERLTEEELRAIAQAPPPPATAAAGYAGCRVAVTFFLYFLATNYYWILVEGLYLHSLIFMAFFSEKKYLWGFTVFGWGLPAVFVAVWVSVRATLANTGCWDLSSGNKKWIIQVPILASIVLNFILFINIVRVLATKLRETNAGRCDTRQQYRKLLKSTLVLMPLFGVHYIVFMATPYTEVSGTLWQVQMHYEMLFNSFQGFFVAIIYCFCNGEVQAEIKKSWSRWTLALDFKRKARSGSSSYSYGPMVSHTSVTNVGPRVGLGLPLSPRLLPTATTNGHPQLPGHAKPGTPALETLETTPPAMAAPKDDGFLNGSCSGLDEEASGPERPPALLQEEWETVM
# Experimental: as §1, §2, §3
compound,measurement,setting,value
CC[C@H](C)[C@H](NC(=O)[C@H](CCC(=O)O)NC(=O)[C@H](CO)NC(=O)[C@@H](NC(=O)[C@@H](N)CO)C(C)C)C(=O)N[C@@H](CCC(N)=O)C(=O)N[C@@H](CC(C)C)C(=O)N[C@@H](CCSC)C(=O)N[C@@H](Cc1cnc[nH]1)C(=O)N[C@@H](CC(N)=O)C(=O)N[C@@H](CC(C)C)C(=O)NCC(=O)N[C@@H](CCCCN)C(=O)N[C@@H](Cc1cnc[nH]1)C(=O)N[C@@H](CC(C)C)C(=O)N[C@@H](CC(N)=O)C(=O)N[C@@H](CO)C(=O)N[C@@H](CCSC)C(=O)N[C@@H](CCC(=O)O)C(=O)N[C@@H](CCCN=C(N)N)C(=O)N[C@H](C(=O)N[C@@H](CCC(=O)O)C(=O)N[C@@H](Cc1c[nH]c2ccccc12)C(=O)N[C@@H](CC(C)C)C(=O)N[C@@H](CCCN=C(N)N)C(=O)N[C@@H](CCCCN)C(=O)N[C@@H](CCCCN)C(=O)N[C@@H](CC(C)C)C(=O)N[C@@H](CCC(N)=O)C(=O)N[C@@H](CC(=O)O)C(=O)N[C@H](C(=O)N[C@@H](Cc1cnc[nH]1)C(=O)N[C@@H](CC(N)=O)C(=O)N[C@@H](Cc1ccccc1)C(=O)O)C(C)C)C(C)C [PTH(1-34)],time of peak blood ionized calcium after injection,Mice (CD1 female),1 to 2 h
same,blood ionized calcium response,Mice (CD1 female); n=4,strong increase
same,"Max (normalized ± SD), hPTHR1YFPΔECD","PTHR1YFPΔECD; maximal cAMP response, normalized",1.00 ± 0.00
same,EC50,"PTHR1YFPΔECD; mean ± SD, Inactive = response <5% of maximal, read-out: EC50, cAMP induction, hPTHR1YFPΔECD",689 ± 301 nM
same,"Max (normalized ± SD), hPTHR16E",PTHR16E,1 ± 0.0
